Source: patent US7829714B2, “Method for measuring aromatase activity” (GE Healthcare Limited, priority 2003, dated 2010)
Like-named read-outs stand apart in the source and are kept apart here.

Molecular target: T1, CYP19 (aromatase) containing microsomes (Homo sapiens, UniProt P11511)
T1 sequence (P11511 1-503): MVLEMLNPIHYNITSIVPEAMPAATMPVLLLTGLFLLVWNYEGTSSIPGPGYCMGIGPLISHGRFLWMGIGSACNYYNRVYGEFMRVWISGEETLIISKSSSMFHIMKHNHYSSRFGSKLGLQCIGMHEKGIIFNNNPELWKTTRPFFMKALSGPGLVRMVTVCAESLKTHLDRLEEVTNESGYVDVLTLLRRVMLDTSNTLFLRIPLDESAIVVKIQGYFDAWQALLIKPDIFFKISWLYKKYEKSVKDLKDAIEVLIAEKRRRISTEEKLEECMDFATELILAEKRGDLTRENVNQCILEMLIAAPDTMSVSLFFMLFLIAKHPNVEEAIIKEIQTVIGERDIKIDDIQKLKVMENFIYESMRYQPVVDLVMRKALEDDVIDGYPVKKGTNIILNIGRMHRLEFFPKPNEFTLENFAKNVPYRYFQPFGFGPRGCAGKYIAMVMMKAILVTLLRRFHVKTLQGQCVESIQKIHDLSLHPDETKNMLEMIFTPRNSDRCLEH
Conditions: for change in intensity relative to the control: 20 μl of CYP19 aromatase preparation (FIG. 5); for decrease in intensity relative to the control reaction: 2 μM substrate, 1 mM NADPH
Procedure: NADPH was prepared to a final concentration of 1 mM in 100 mM disodium hydrogen phosphate buffer pH7.4.
100 μl of this reagent was dispensed in to replicate wells of a 96 well microtitre plate. To each well was dispensed 20 μl-30 μl of either the CYP19 (aromatase) containing microsomes or control microsomes (no CYP19). All microsomes were adjusted to the same protein concentration with assay buffer. The plates were incubated at 37° C. for 1 hour and then fluorescence intensity measurements were recorded on the Envision Plate Reader (Perkin Elmer, US), excitation 405 nm/emission BFP450 nm.

Row | Compound | change in intensity relative to the control [%] | fluorescence intensity, aromatase microsomes compared to control microsome preparation | decrease in intensity relative to the control reaction (300 of microsome preparation, 37° C. for 1 hour (FIG. 3)) [%] | decrease in fluorescence (in the absence of additional co-factor (NADPH) (FIG. 4)) [%] | decrease in fluorescence (in the presence of additional NADPH (FIG. 4)) [%] | decrease in intensity relative to the control reaction (microsome volume of 200, 37° C. for 1 hour, excitation 405 nm/emission 450 nm (FIG. 3)) [%]
1 | O=C(O)CCCCCn1c2ccccc2c(=O)c2ccccc21 [compound XVII, 6-(9-oxoacridin-10(9H)-yl)hexanoic acid, reference compound] | 5 |  |  |  |  | 
2 | C[C@]12CCC(=O)C=C1CC[C@@H]1[C@@H]2CC[C@]2(C)C(C(=O)NCCNC(=O)CCCCCn3c4ccccc4c(=O)c4ccccc43)CC[C@@H]12 (stereo partly shown) [Formula XX, 3-oxo-N-(2-{[6-(9-oxoacridin-10(9H)-yl)hexanoyl]amino}ethyl)androst-4-ene-17-carboxamide] | 17.5 | greater decrease in fluorescence intensity | 24.2 | 16 | 24 | 17.5
